ChEMBL document CHEMBL5465560, “Selectivity Literature for EUbOPEN Chemogenomic Library” (2024)
Values belong to the compound of their own block, whether it stands above or below them.

Experiments:
[1] = target: Serine/threonine-protein kinase MRCK alpha (Homo sapiens) (UniProt Q5VT25); assay: Selectivity interaction (KinomeScan (DiscoverX)) EUB0000666a CDC42BPA; settings: at 10 µM
[2] = target: T1, Cyclin-G-associated kinase (Homo sapiens) (UniProt O14976); assay: Selectivity interaction (KinomeScan (DiscoverX)) EUB0000666a GAK; settings: at 10 µM
T1 sequence (whole entry): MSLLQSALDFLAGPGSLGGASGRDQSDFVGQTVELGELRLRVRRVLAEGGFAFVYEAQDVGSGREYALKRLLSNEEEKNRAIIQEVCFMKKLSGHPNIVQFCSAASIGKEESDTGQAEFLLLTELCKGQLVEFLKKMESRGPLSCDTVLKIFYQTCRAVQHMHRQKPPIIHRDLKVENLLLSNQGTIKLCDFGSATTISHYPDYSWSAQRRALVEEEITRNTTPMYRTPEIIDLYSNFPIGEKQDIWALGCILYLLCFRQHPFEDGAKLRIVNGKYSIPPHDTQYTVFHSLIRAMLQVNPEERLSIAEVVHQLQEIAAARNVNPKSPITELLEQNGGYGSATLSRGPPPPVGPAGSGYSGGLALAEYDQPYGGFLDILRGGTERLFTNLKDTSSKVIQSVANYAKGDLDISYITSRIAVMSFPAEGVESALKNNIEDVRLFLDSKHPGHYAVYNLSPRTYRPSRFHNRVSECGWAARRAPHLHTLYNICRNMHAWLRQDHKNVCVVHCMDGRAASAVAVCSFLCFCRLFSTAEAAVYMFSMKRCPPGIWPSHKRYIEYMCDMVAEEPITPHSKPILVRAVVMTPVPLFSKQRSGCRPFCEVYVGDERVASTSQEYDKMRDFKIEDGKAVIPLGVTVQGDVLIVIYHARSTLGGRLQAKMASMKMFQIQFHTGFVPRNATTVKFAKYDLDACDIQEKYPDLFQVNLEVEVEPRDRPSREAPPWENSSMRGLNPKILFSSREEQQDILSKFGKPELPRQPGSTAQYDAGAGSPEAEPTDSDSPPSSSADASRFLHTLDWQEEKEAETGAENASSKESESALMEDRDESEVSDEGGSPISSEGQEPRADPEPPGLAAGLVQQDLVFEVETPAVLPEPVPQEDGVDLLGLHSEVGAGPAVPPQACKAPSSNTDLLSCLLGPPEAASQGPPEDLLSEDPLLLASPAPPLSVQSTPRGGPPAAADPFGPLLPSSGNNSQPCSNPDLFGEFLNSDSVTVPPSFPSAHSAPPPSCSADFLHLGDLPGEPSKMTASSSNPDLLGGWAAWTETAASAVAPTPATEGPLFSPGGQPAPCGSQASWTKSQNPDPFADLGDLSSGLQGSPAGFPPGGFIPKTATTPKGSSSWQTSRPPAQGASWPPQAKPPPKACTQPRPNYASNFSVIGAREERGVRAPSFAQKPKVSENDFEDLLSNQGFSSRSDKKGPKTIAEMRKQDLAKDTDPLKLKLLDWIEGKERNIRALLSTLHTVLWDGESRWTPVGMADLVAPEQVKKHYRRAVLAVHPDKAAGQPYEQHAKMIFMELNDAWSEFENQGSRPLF

[3] = target: Calcium/calmodulin-dependent protein kinase type II subunit alpha (Homo sapiens, UniProt Q9UQM7); assay: Selectivity interaction (ActivX KiNativ screen (kinase selectivity in THP-1 cell lysates)) EUB0000639a CAMK2A; assay type: subcellular; settings: lysate
[4] = target: Phosphatidylinositol 4-kinase type 2-beta (Homo sapiens) (UniProt Q8TCG2); assay: Selectivity interaction (ActivX KiNativ screen (kinase selectivity in THP-1 cell lysates)) EUB0000639a PI4K2B; assay type: subcellular; settings: lysate
[5] = target: T2, MAP kinase-activated protein kinase 5 (Homo sapiens) (UniProt Q8IW41); assay: Selectivity interaction (ProQinase) EUB0000171b MAPKAPK5
T2 sequence (whole entry): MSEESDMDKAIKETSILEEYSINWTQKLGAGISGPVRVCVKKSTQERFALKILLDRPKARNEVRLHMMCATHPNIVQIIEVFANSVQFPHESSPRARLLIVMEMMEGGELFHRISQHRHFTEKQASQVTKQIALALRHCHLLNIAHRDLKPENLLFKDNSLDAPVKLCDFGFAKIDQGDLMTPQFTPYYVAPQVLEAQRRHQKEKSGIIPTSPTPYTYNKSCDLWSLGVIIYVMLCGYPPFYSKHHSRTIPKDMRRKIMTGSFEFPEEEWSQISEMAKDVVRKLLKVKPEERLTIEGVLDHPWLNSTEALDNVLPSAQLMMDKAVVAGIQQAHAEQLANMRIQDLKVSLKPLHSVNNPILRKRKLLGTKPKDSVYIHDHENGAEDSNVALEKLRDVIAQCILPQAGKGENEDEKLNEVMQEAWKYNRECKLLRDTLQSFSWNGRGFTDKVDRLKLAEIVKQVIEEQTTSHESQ

[6] = target: Casein kinase II subunit alpha' (Homo sapiens) (UniProt P19784); assay: Selectivity interaction (KinomeScan (DiscoverX)) EUB0000595a CSNK2A2; settings: at 10 µM
[7] = target: Tyrosine-protein kinase Fgr (Homo sapiens) (UniProt P09769); assay: Selectivity interaction (Millipore kinase profiler) EUB0000124b FGR; settings: at 10 µM
[8] = target: Interleukin-1 receptor-associated kinase 1 (Homo sapiens) (UniProt P51617); assay: Selectivity interaction (KinomeScan (DiscoverX)) EUB0000229b IRAK1; settings: at 10 µM
[9] = target: Cyclin-dependent kinase 13 (Homo sapiens, UniProt Q14004); assay: Selectivity interaction (KinomeScan (DiscoverX)) EUB0000229b CDK13; settings: at 10 µM
[10] = target: Tyrosine-protein kinase Fer (Homo sapiens) (UniProt P16591); assay: Selectivity interaction (ActivX KiNativ screen (ex vivo kinase selectivity in human PBMCs)) EUB0001619a FER; assay type: cell-based; settings: PBMC, at 1 µM
[11] = target: Calcium/calmodulin-dependent protein kinase type 1 (Homo sapiens) (UniProt Q14012); assay: Selectivity interaction (ActivX KiNativ screen (ex vivo kinase selectivity in human PBMCs)) EUB0001619a CAMK1; assay type: cell-based; settings: PBMC, at 1 µM
Sequence of Calcium/calmodulin-dependent protein kinase type 1 (Homo sapiens) (Q14012 whole entry, looked up): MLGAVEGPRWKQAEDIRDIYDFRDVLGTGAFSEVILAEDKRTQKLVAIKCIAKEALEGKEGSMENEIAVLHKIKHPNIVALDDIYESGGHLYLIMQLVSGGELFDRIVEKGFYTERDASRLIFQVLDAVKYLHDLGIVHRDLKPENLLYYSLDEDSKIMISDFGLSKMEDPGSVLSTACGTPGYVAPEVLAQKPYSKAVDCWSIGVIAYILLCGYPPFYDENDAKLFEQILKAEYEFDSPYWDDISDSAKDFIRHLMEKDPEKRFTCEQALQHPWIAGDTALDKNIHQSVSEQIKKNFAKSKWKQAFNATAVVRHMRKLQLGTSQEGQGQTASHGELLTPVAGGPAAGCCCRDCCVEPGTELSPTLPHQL

Sequence of Calcium/calmodulin-dependent protein kinase type II subunit alpha (Q9UQM7 whole entry): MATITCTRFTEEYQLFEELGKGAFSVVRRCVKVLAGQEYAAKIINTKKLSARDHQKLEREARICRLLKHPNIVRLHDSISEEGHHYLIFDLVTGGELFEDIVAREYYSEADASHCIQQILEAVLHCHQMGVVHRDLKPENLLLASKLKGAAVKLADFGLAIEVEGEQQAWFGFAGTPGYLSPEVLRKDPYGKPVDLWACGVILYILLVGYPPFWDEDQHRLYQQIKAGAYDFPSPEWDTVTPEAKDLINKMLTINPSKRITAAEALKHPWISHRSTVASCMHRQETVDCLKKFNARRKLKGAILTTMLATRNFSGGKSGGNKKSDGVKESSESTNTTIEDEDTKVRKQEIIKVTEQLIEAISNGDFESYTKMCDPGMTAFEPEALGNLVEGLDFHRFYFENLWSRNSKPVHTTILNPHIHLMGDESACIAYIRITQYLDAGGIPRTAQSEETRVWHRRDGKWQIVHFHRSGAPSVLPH
Sequence of Phosphatidylinositol 4-kinase type 2-beta (Homo sapiens) (Q8TCG2 whole entry): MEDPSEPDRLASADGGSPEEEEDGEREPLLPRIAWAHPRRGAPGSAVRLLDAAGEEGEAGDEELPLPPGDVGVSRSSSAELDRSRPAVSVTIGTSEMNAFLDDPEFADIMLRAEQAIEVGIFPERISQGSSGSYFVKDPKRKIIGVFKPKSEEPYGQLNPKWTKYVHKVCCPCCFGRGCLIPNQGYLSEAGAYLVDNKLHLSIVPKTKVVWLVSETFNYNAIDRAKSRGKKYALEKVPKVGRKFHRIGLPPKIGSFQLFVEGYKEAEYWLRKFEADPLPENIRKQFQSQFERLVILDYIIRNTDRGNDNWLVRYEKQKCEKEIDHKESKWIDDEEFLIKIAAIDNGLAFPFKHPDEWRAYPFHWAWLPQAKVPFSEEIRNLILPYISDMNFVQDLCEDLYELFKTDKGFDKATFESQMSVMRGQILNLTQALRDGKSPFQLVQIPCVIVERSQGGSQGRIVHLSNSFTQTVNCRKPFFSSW
Sequence of Casein kinase II subunit alpha' (Homo sapiens) (P19784 whole entry, looked up): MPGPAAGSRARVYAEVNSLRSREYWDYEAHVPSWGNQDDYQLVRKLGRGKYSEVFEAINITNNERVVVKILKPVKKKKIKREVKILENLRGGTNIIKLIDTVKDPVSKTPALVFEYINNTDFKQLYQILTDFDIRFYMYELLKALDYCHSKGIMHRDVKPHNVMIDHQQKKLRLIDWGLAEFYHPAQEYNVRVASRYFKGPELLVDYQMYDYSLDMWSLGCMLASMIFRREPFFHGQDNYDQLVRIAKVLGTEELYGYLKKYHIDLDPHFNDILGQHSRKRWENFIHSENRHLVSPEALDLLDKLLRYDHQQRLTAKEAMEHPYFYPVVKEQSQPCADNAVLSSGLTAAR
Sequence of Tyrosine-protein kinase Fgr (Homo sapiens) (P09769 2-529 limits assumed): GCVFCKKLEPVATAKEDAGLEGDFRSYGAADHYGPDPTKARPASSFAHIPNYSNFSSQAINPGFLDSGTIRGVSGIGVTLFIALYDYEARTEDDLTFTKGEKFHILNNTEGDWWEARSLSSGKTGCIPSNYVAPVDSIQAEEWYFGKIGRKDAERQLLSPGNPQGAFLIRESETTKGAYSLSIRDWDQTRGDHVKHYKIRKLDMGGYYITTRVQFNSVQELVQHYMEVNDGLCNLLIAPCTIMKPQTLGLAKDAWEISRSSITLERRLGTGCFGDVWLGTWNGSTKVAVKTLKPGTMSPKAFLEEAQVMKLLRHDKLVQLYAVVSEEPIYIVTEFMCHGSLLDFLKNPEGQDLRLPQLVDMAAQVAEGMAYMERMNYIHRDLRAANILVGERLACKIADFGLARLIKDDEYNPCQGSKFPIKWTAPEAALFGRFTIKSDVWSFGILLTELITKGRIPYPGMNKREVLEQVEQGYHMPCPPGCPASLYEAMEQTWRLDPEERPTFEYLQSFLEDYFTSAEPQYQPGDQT
Sequence of Interleukin-1 receptor-associated kinase 1 (Homo sapiens) (P51617 whole entry, looked up): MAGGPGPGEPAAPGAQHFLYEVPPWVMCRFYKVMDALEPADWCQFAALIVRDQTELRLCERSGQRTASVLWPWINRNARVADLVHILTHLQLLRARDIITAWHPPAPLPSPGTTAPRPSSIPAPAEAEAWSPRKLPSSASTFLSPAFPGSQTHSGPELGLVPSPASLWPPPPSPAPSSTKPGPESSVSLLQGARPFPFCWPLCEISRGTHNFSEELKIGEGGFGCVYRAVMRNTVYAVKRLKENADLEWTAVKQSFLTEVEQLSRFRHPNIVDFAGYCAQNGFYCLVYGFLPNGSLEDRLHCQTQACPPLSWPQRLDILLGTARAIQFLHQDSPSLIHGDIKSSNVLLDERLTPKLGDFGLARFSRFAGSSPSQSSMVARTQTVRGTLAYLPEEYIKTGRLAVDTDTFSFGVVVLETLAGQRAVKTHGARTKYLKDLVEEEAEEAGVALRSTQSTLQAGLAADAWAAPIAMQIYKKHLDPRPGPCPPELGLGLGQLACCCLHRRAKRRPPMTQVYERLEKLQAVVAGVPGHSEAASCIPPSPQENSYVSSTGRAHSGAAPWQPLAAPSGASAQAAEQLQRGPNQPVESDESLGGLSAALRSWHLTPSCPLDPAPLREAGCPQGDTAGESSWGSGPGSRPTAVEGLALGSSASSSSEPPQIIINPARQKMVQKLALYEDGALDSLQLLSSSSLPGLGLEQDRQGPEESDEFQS
Sequence of Serine/threonine-protein kinase MRCK alpha (Homo sapiens) (Q5VT25 whole entry): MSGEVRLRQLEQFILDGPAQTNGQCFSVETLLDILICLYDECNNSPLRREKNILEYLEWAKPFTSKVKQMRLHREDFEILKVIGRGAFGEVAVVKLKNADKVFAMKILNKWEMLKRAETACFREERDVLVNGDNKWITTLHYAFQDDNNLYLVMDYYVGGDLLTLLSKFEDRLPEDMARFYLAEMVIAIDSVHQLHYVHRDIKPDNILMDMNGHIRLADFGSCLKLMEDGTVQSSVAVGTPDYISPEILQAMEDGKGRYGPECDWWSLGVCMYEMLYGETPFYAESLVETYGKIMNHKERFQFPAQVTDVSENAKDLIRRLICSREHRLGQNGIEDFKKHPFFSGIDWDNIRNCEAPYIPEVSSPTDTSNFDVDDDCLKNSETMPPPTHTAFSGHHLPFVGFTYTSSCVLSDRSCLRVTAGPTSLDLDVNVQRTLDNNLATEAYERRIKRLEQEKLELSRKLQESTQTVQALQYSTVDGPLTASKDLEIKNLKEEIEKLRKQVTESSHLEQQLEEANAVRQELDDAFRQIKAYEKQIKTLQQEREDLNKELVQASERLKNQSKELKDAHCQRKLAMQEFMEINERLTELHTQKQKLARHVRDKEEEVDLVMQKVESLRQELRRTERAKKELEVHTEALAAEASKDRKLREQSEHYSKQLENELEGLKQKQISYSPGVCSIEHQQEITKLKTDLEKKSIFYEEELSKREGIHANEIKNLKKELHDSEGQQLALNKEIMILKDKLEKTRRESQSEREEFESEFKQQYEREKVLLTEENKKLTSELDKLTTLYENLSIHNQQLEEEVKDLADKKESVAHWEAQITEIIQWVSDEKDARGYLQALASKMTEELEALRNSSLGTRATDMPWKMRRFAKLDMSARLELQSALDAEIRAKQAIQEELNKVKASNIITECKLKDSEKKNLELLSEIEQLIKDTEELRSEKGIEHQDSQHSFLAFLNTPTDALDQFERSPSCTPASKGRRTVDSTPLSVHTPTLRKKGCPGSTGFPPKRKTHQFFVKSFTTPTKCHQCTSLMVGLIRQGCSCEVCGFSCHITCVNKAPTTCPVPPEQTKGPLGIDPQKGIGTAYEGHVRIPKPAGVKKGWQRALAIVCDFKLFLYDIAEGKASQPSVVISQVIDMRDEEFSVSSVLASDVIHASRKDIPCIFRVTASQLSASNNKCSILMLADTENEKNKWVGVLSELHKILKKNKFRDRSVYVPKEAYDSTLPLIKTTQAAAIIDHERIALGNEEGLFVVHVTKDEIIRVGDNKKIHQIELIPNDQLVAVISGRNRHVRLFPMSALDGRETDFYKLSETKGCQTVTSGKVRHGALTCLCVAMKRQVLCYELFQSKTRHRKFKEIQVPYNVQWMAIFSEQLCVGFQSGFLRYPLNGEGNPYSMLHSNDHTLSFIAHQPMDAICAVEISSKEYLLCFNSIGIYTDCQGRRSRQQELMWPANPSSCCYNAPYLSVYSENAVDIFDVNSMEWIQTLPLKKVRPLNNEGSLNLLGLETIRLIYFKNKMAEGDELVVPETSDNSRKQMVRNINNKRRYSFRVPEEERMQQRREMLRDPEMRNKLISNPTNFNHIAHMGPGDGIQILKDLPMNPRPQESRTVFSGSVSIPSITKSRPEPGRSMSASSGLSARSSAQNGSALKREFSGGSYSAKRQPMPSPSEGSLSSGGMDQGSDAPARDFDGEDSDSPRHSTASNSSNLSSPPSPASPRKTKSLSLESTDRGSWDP

Structure (SMILES): O=C(NOC[C@H](O)CO)c1ccc(F)c(F)c1Nc1ccc(I)cc1F
- % of control [1]: 100%
- % of control [2]: 71%

- % of inhibition ([3]; at 0.01 µM): 3.3%
- % of inhibition ([3]; at 0.04 µM): 16.7%
- % of inhibition ([3]; at 0.2 µM): 6.9%
- % of inhibition ([3]; at 1 µM): 25.1%
- % of inhibition ([3]; at 5 µM): 56.2%
- % of inhibition ([4]; at 0.01 µM): 13.9%
- % of inhibition ([4]; at 0.04 µM): -2.8%
- % of inhibition ([4]; at 0.2 µM): -47.4%
- % of inhibition ([4]; at 1 µM): -23.2%
- % of inhibition ([4]; at 5 µM): -24%
Structure (SMILES): CC[C@@H]1[C@H](F)C(=O)N[C@@H]1COc1nccc2cc(C(N)=O)c(OC)cc12 [ZIMLOVISERTIB]

- % of control ([5]; at 1 µM): 96%
- % of control ([5]; at 5 µM): 97%
Structure (SMILES): C=CC(=O)Nc1cccc(C(=O)Nc2ccc(Nc3cc(-c4[nH]c(SC)nc4C)ccn3)cc2)c1

Structure (SMILES): COCC(=O)NC/C=C/c1ccc2ncnc(Nc3ccc(Oc4ccc(C)nc4)c(C)c3)c2c1 [CP-724714]
- % of control [6]: 100%

- % of control [7]: 86%
Structure (SMILES): CC(=O)Nc1cccc(-n2c(=O)n(C3CC3)c(=O)c3c(Nc4ccc(I)cc4F)n(C)c(=O)c(C)c32)c1

Structure (SMILES): COc1cc(N(C)c2ccnc3ccc(C(F)(F)F)cc23)cc(OC)c1OC
- % binding [8]: 88%
- % binding [9]: 88%

Structure (SMILES): N#Cc1cccc(-c2c[nH]c3ncnc(N4CCOCC4)c23)c1
- % of inhibition [10]: 12%
- % of inhibition [11]: 2%
